# From ChEMBL document CHEMBL5260823, “5-Ene-4-thiazolidinones - An efficient tool in medicinal chemistry” (Eur J Med Chem, 2017)
# Tests used:
# [1] = Inhibition of beta-lactamase P99 (unknown origin) using cephalosporin nitrocefin as substrate preincubated for 10 mins followed by substrate addition by spectrophotometric analysis; design: species or system Bacteria
# [2] = Inhibition of COX-2 in LPS stimulated mouse J774.A1 cells using arachidonic acid as substrate preincubated for 60 mins followed by substrate addition and measured after 30 mins by EIA analysis; type: cell-based
# [3] = target: T1, Lethal factor (Bacillus anthracis, UniProt P15917); experiment: Inhibition of Bacillus anthracis anthrax lethal factor using MAPKKide as substrate incubated for 30 mins by fluorescence plate reader analysis
# T1 sequence (P15917 whole entry): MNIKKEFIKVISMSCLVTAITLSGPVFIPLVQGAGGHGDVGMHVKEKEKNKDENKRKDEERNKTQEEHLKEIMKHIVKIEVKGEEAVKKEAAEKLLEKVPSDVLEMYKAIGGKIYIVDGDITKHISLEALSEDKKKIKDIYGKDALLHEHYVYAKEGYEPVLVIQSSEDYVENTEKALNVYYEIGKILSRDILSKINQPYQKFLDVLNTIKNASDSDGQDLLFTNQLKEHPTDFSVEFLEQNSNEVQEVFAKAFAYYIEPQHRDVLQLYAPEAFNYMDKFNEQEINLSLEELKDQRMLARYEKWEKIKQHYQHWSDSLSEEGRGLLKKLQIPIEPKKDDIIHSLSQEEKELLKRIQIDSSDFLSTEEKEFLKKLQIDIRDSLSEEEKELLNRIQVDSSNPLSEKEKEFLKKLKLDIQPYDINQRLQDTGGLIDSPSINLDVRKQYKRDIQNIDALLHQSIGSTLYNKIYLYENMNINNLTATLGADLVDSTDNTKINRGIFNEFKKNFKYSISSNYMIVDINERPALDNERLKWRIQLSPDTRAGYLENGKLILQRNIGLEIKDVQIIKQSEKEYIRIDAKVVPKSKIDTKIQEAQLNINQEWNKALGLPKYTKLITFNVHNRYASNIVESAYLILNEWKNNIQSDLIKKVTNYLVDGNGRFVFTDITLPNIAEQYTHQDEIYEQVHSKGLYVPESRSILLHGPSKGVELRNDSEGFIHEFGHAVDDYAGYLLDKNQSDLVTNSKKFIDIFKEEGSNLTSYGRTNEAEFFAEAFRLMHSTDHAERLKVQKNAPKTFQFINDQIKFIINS
# [4] = test system: Plasmodium falciparum; experiment: Antimalarial activity against chloroquine sensitive Plasmodium falciparum FCR-3 infected in mouse FM3A cells ssessed as reduction in parasite growth; type: functional, organism-based; settings: FCR-3, FM3A
# [5] = target: RNA-directed RNA polymerase (Hepacivirus hominis, UniProt O39930); experiment: Inhibition of Hepatitis C virus NS5B polymerase
# RNA-directed RNA polymerase, sequence (O39930 whole entry): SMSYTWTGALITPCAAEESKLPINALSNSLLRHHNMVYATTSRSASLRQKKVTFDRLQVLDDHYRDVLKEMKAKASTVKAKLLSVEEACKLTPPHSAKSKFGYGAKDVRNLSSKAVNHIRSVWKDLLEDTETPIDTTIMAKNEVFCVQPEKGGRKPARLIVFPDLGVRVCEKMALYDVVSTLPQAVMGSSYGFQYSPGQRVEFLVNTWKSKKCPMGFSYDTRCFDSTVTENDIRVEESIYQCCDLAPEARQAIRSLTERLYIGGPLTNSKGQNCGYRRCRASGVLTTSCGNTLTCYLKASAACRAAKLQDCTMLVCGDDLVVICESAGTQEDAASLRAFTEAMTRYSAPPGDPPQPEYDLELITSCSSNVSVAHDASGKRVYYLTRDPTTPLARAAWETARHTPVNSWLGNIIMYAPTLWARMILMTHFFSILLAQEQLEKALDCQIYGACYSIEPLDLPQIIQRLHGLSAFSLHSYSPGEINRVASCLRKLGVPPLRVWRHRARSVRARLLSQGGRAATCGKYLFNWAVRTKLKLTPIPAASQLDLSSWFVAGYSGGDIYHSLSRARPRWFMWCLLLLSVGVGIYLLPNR
# [6] = target: Dual specificity tyrosine-phosphorylation-regulated kinase 1A (Homo sapiens, UniProt Q13627); experiment: Inhibition of recombinant human GST-tagged DYRK1A expressed in Escherichia coli using Woodtide as substrate in presence of [gamma-33P] ATP incubated for 30 mins by scintillation counter analysis
# [7] = test system: B16-F10; experiment: Antiproliferative activity against mouse B16-F10 cells assessed as reduction in cell proliferation incubated for 4 days by crystal violet based assay; type: functional; settings: B16-F10, 96 h
# [8] = test system: Caco-2; experiment: Antiproliferative activity against human Caco-2 cells assessed as reduction in cell proliferation incubated for 4 days by crystal violet based assay; type: functional; settings: Caco-2, 96 h
# [9] = test system: HeLa S3; experiment: Antiproliferative activity against human HeLa S3 cells assessed as reduction in cell proliferation incubated for 4 days by crystal violet based assay; type: functional; settings: HeLa S3, 96 h
# [10] = target: Serine/threonine-protein kinase PLK1 (Homo sapiens, UniProt P53350); experiment: Inhibition of full-length His-tagged human PLK1 expressed in baculovirus using biotinylated casein as substrate in presence of [gamma-33P]-ATP by scintillation counter analysis
# Serine/threonine-protein kinase PLK1, sequence (P53350 whole entry): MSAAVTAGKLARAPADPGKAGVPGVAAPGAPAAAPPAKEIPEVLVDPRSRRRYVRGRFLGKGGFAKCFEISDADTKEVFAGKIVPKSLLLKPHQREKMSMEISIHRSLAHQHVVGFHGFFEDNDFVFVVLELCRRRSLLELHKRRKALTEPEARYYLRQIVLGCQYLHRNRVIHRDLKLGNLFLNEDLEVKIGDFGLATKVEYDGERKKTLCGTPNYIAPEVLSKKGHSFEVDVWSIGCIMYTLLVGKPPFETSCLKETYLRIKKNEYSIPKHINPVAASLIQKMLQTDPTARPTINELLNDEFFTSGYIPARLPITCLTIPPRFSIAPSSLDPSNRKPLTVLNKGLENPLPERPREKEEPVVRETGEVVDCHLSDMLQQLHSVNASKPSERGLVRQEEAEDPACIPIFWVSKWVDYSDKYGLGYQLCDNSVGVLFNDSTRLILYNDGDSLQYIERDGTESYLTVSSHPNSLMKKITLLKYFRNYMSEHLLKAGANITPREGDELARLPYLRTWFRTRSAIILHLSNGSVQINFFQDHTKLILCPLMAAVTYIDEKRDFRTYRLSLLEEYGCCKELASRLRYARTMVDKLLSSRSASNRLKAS
# [11] = test system: NCI-H460; experiment: Antiproliferative activity against human NCI-H460 cells assessed as reduction in cell proliferation incubated for 4 days by crystal violet based assay; type: functional; settings: NCI-H460, 96 h
# [12] = test system: DU-145; experiment: Antiproliferative activity against human DU-145 cells assessed as reduction in cell proliferation incubated for 4 days by crystal violet based assay; type: functional; settings: DU-145, 96 h
# [13] = test system: MCF7; experiment: Antiproliferative activity against human MCF7 cells assessed as reduction in cell proliferation incubated for 4 days by crystal violet based assay; type: functional; settings: MCF7, 96 h
# [14] = target: T2, Peroxisome proliferator-activated receptor alpha (Homo sapiens, UniProt Q07869); experiment: Agonist activity against PPAR-alpha (unknown origin)
# T2 sequence (Q07869 whole entry): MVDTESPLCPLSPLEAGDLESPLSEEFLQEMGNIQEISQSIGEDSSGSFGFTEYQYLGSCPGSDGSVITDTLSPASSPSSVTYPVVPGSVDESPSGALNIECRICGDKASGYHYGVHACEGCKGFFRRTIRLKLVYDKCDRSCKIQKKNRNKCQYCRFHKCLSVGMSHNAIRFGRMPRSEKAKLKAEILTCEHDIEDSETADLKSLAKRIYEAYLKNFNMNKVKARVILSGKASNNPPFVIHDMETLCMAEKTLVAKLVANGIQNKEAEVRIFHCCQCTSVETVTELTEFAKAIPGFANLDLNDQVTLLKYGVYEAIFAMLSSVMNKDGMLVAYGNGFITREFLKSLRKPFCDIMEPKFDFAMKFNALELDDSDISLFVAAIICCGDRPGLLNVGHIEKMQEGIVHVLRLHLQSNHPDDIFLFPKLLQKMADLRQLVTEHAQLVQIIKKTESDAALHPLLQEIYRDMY
smiles,measurement,setting,value
O=C1NC(=S)S/C1=C1\C(=O)Nc2ccccc21,IC50,[1],2600 µM
CONC1=NC(=O)/C(=C/c2cc(C(C)(C)C)c(O)c(C(C)(C)C)c2)S1,IC50,[2],0.17 µM
O=C(O)CN1C(=O)/C(=C/c2ccco2)SC1=S,IC50,[3],10 µM
C=CCn1c(=O)/c(=C2\Sc3ccccc3N2C)s/c1=C\c1cccc[n+]1C,EC50,[4],0.012 µM
Cc1ccc(S(=O)(=O)NC2=NC(=O)/C(=C/c3ccc(C)o3)S2)cc1,IC50,[5],2 µM
COc1ccc(/C=C2\SC(NCCCN3CCN(CCCNC4=NC(=O)/C(=C/c5ccc(OC)cc5)S4)CC3)=NC2=O)cc1,IC50,[6],0.04 µM
CCc1ccc(/C=C2/SC(NC(C(=O)O)c3ccc(F)cc3)=NC2=O)o1 (stereo not given),IC50,[5],3 µM
CCn1c(=O)/c(=C/Nc2cccc(CCN3CCCC3)c2)s/c1=C(\C#N)C(=O)NCC(F)(F)F,IC50,[7],0.2 µM
same,IC50,[8],0.2 µM
same,IC50,[9],0.2 µM
same,IC50,[10],0.019 µM
same,IC50,[11],0.2 µM
same,IC50,[12],0.2 µM
same,IC50,[13],0.2 µM
CN(C)c1ccc(/C=C/C=C2\S/C(=N\c3ccccc3)N(Cc3ccc(C(=O)O)cc3)C2=O)cc1,EC50,[14],0.044 µM
